According to patent publication US8815909B2, “Diaminocyclohexane compounds and uses thereof” (Bristol-Myers Squibb Company, priority 2011, dated 2014):
pEC50: −log10 of the molar value.

biological target: T1, human Y4 receptor (Homo sapiens, UniProt P50391); assay: NPY4 cAMP HTRF Agonist Assay (inhibitory cAMP assay, Gi activation by Y4 agonism); type: cell-based; details: human Y4 stable CHO clonal cells, forskolin + IBMX; read-out: NPY4 cAMP HTRF Agonist Assay EC50
T1 construct: expressed in transfected cells
T1 sequence (P50391 whole entry): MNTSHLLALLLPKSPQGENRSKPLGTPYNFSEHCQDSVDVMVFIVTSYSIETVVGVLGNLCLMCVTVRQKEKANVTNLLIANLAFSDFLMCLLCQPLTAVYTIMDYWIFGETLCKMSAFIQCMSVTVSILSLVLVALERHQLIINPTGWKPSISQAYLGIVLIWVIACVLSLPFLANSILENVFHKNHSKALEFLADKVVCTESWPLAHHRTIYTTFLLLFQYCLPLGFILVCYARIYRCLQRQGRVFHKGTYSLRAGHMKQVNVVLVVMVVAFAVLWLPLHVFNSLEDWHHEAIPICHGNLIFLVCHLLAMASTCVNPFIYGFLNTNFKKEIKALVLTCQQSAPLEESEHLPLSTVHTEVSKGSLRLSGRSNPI
Protocol: NPY4 cAMP HTRF Agonist Assay
The functionality of the compound at Y4 receptor was analyzed using a inhibitory cAMP assay (CISBIO, HTRF cAMP kit #62AM4PEC) to measure the Gi activation by Y4 agonism.
The human Y4 stable CHO clonal cells were maintained in culture medium (F-12 containing 10% Fetal Bovine Serum, […] GENETICIN®, […] Zeocin). Before the experiment, 5 μL of 1 uM Forskolin (Sigma, # F6886) and 100 uM IBMX (Sigma, # I5879) in PBS buffer were added into 384-well plates (PE, Proxi-plate) that were pre-dotted with 100 nL compounds. The cells were removed from the flasks by Cellstripper, counted and adjusted to 1.0×10^6 cells/mL in PBS buffer, and added 5 μL/well (5000 cells/well) into the above 384-well plates. The cells were then covered and incubated for 30 minutes at room temperature. After incubation, 5 μL/well of D2-conjugate in HTRF lysis buffer was first added, followed by adding 5 μL/well of anti-cAMP Cryptate in HTRF lysis buffer. The plates were incubated for another 1 hour at room temperature and read on the EnVision Multilabel Plate Reader.
Compounds described herein were tested in the above assay.

| pEC50 | Compound |
| --- | --- |
| 6.41 | O=[N+]([O-])c1ccc(N2CCC[C@H](N[C@@H]3CCCC[C@H]3Nc3nccc(-c4cccc(OC(F)(F)F)c4)n3)C2)cc1 [Example 29, (1R,2R)—N1-((S)-1-(4-Nitrophenyl)piperidin-3-yl)-N2-(4-(3-(trifluoromethoxy)phenyl)pyrimidin-2-yl)cyclohexane-1,2-diamine] |
| 6.69 | COc1cccc(-c2ccnc(N[C@@H]3CCCC[C@H]3N[C@H]3CCCN(c4ccc([N+](=O)[O-])cc4)C3)n2)c1 [Example 30, (1R,2R)—N1-(4-(3-Methoxyphenyl)pyrimidin-2-yl)-N2-((S)-1-(4-nitrophenyl)piperidin-3-yl)cyclohexane-1,2-diamine] |
| 6.62 | COc1ccc(-c2ccnc(N[C@@H]3CCCC[C@H]3N[C@H]3CCCN(c4ccc([N+](=O)[O-])cc4)C3)n2)cc1 [Example 31, (1R,2R)—N1-(4-(4-Methoxyphenyl)pyrimidin-2-yl)-N2-((S)-1-(4-nitrophenyl)piperidin-3-yl)cyclohexane-1,2-diamine] |
| 7.22 | O=[N+]([O-])c1ccc(N2CCC[C@H](N[C@@H]3CCCC[C@H]3Nc3nccc(-c4ccccc4)n3)C2)cc1 [Example 32, (1R,2R)—N1-((S)-1-(4-Nitrophenyl)piperidin-3-yl)-N2-(4-phenylpyrimidin-2-yl)cyclohexane-1,2-diamine] |
| 6.49 | N#Cc1ccc(N2CCC[C@H](N[C@@H]3CCCC[C@H]3Nc3cc(-c4cc[nH]n4)ccn3)C2)cc1 [Example 33, 4-((S)-3-((1R,2R)-2-(4-(1H-Pyrazol-3-yl)pyridin-2-ylamino)cyclohexylamino)piperidin-1-yl)benzonitrile tris-trifluoroacetate] |
| 6.82 | Cn1nccc1-c1ccnc(N[C@@H]2CCCC[C@H]2N[C@H]2CCCN(c3ccc(C#N)cc3)C2)c1 [Example 34, 4-((S)-3-((1R,2R)-2-(4-(1-Methyl-1H-pyrazol-5-yl)pyridin-2-ylamino)cyclohexylamino)piperidin-1-yl)benzonitrile tris-trifluoroacetate] |
| 7.38 | N#Cc1ccc(N2CCC[C@H](N[C@@H]3CCCC[C@H]3Nc3ncc(-c4cccc(F)c4)o3)C2)cc1 [Example 35, 4-((S)-3-((1R,2R)-2-(5-(3-Fluorophenyl)oxazol-2-ylamino)cyclohexylamino)piperidin-1-yl)benzonitrile] |
| 6.58 | N#Cc1ccc(N2CCC[C@H](N[C@@H]3CCCC[C@H]3Nc3cc(-c4cccc(F)c4)ccn3)C2)cc1 [Example 36, 4-((S)-3-((1R,2R)-2-(4-(3-Fluorophenyl)pyridin-2-ylamino)cyclohexylamino)piperidin-1-yl)benzonitrile tris-trifluoroacetate] |
| 7.09 | N#Cc1ccc(N2CCC[C@H](N[C@@H]3CCCC[C@H]3Nc3cc(-c4ccccc4F)ccn3)C2)cc1 [Example 37, 4-((S)-3-((1R,2R)-2-(4-(2-Fluorophenyl)pyridin-2-ylamino)cyclohexylamino)piperidin-1-yl)benzonitrile tris-trifluoroacetate] |
| 8.10 | N#Cc1ccc(N2CCC[C@H](N[C@@H]3CCCC[C@H]3Nc3ncc(-c4ccc(OC(F)(F)F)cc4)o3)C2)cc1Cl [Example 38, 2-Chloro-4-((S)-3-((1R,2R)-2-(5-(4-(trifluoromethoxy)phenyl)oxazol-2-ylamino)cyclohexylamino)piperidin-1-yl)benzonitrile bis-trifluoroacetate] |
| 7.46 | N#Cc1ccc(N2CCC[C@H](N[C@@H]3CCCC[C@H]3Nc3ncc(-c4ccccc4F)o3)C2)cc1Cl [Example 39, 2-Chloro-4-((S)-3-((1R,2R)-2-(5-(2-fluorophenyl)oxazol-2-ylamino)cyclohexylamino)piperidin-1-yl)benzonitrile bis-trifluoroacetate] |
| 7.54 | N#Cc1ccc(N2CCC[C@H](N[C@@H]3CCCC[C@H]3Nc3nccc(-c4ccccc4)n3)C2)cc1Cl [Example 40, 2-Chloro-4-((S)-3-((1R,2R)-2-(4-phenylpyrimidin-2-ylamino)cyclohexylamino)piperidin-1-yl)benzonitrile bis-trifluoroacetate] |
